Test results reported in EP1806348A2, “Pyrido (2,3-D)Pyrimidines as inhibitors of cellular proliferation” (Warner-Lambert Company LLC, priority 1997, dated 1998).
Like-named read-outs stand apart in the source and are kept apart here.

What was measured:
Assay type in all cases: biochemical
[1] = target: cdk4/D (Homo sapiens, UniProt P11802); assay: Cyclin-dependent kinase 4 (cdk4) enzyme assay, 32P incorporation into retinoblastoma; settings: for inhibition at 40 µM: read-out: cdk4/D % inhibition at 40 µM
Chain of cdk4/D (P11802 whole entry): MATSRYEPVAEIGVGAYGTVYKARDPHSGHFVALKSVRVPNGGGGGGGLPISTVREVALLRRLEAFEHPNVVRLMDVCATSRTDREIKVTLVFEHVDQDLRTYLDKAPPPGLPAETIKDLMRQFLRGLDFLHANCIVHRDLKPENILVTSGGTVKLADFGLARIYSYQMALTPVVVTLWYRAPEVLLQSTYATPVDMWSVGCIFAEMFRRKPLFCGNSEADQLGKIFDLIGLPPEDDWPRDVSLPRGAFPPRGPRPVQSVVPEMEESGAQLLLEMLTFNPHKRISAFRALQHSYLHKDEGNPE
Chain of cdk4/D (P24385 whole entry, further chain): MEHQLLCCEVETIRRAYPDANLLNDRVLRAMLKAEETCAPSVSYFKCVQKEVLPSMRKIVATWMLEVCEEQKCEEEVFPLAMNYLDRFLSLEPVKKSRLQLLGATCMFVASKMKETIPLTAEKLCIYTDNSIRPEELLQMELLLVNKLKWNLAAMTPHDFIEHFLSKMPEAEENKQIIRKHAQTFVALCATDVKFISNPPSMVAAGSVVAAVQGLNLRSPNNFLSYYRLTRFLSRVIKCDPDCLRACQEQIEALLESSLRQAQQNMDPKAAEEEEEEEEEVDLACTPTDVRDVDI
Experimental: A typical assay, for instance, measures inhibitory activity against the cyclin D dependent kinase 4 enzyme (cdk4/D). […] The cdk 4 assay was carried out as follows.
(§1) All components except the ATP were added to the wells, and the plate was placed on a plate mixer for 2 minutes. […] The reaction was terminated by addition of 0.1 mL of 20% trichloroacetic acid (TCA). The plate was kept at 4°C for at least 1 hour to allow the substrate to precipitate. The wells were then washed five times with 0.2 mL of 10% TCA and ^32P incorporation was determined with a beta plate counter (Wallac Inc., Gaithersburg, MD).

[2] = target: cdc2/cyclinB (Homo sapiens, UniProt P06493); assay: Cyclin-dependent kinase assay (cdc2/cyclinB); settings: Table 1; read-out: cdk1/B IC50
Chain of cdc2/cyclinB (P06493 whole entry): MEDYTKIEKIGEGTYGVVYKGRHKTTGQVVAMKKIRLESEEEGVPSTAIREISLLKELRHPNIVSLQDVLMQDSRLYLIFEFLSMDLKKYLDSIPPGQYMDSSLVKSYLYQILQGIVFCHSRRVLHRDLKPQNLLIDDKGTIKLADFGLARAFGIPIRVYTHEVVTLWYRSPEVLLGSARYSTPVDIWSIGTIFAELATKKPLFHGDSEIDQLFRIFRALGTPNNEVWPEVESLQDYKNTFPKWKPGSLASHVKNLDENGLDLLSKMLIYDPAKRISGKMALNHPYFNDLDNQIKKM
Chain of cdc2/cyclinB (P14635 whole entry, further chain): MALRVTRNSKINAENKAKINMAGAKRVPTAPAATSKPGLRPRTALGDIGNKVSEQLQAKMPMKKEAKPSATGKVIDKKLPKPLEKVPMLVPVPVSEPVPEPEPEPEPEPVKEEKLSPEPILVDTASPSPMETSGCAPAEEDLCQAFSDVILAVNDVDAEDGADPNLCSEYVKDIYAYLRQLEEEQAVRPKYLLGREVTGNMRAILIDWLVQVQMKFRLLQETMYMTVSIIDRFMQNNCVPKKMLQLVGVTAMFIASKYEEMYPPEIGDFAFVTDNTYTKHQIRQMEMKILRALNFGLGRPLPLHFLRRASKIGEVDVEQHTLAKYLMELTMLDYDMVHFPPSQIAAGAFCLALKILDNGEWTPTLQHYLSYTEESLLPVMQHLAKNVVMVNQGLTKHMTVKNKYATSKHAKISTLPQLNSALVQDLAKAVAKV
Experimental: as §1, with “TCA.” for “trichloroacetic acid (TCA).”, “incorporation” for “incorporation was”

[3] = target: cdk2/cyclinE (Homo sapiens, UniProt P24941); assay: Cyclin-dependent kinase assay (cdk2/cyclinE); settings: Table 1; read-out: cdk2/E IC50
Experimental: as §1, with “TCA.” for “trichloroacetic acid (TCA).”, “incorporation” for “incorporation was”

[4] = target: cdk2/cyclinA (Homo sapiens, UniProt P24941); assay: Cyclin-dependent kinase assay (cdk2/cyclinA); settings: Table 1
Experimental: as §1, with “TCA.” for “trichloroacetic acid (TCA).”, “incorporation” for “incorporation was”

[5] = Table 1, 25 µM ATP, retinoblastoma substrate

Compound | IC50 [1, 5] [nM] | IC50 [2] [nM] | IC50 [3] [nM] | IC50 [4] [nM] | other results
CCn1c(=O)ccc2cnc(Nc3ccc(OC)c(F)c3)nc21 [Example 90, 8-Ethyl-2-(3-fluoro-4-methoxyphenylamino)-8H-pyrido[2,3-d]pyrimidin-7-one] | 1000 |  |  |  | 
O=c1ccc2cnc(Nc3ccccc3)nc2n1CC1CO1 (stereo not drawn) [Example 39, 8-Oxiranylmethyl-2-phenylamino-8H-pyrido[2,3-d]pyrimidin-7-one] | 5000 |  |  |  | 
CCn1c(=O)ccc2cnc(NC(C)(C)C)nc21 [Example 46, 2-tert-Butylamino-8-ethyl-8H-pyrido[2,3-d]pyrimidin-7-one] | 5300 | 3410 |  |  | 
CCn1c(=O)ccc2cnc(Nc3ccc(N4CCOCC4)cc3)nc21 [Example 79, 8-Ethyl-2-(4-morpholin-4-yl-phenylamino)-8H-pyrido[2,3-d]pyrimidin-7-one] | 300 |  |  |  | 
CCn1c(=O)ccc2cnc(Nc3ccc(OCCOC)cc3)nc21 [Example 57, 8-Ethyl-2-[4-(2-methoxyethoxy)phenylamino]-8H-pyrido[2,3-d]pyrimidin-7-one] | 800 |  |  |  | 
O=c1ccc2cnc(Nc3ccccc3)nc2[nH]1 [Example 32, 2-Phenylamino-8H-pyrido[2,3-d]pyrimidin-7-one] |  | 32600 | 12800 | 4660 | 
CCn1c(=O)ccc2cnc(Nc3ccc(-c4ccccc4)cc3)nc21 [Example 49, 2-(Biphenyl-4-ylamino)-8-ethyl-8H-pyrido[2,3-d]pyrimidin-7-one] | 2000 |  |  |  | 
CCn1c(=O)ccc2cnc(Nc3cccc(F)c3OC)nc21 [Example 91, 8-Ethyl-2-(3-fluoro-2-methoxyphenylamino)-8H-pyrido[2,3-d]pyrimidin-7-one] | 9000 |  |  |  | 
CCNc1ncc2ccc(=O)n(-c3ccccc3)c2n1 [Example 100, 2-Ethylamino-8-phenyl-8H-pyrido[2,3-d]pyrimidin-7-one] | 19000 |  |  |  | 
CCn1c(=O)c(C)cc2cnc(Nc3ccccc3)nc21 [Example 83, 8-Ethyl-6-methyl-2-phenylamino-8H-pyrido[2,3-d]pyrimidin-7-one] | 1800 |  |  |  | 
O=c1ccc2cnc(Nc3ccccc3)nc2n1CCCOc1ccccc1 [Example 87, 8-(3-Phenoxypropyl)-2-phenylamino-8H-pyrido[2,3-d]pyrimidin-7-one] |  | 1080 |  |  | 
CCn1c(=O)ccc2cnc(Nc3ccc(O)cc3)nc21 [Example 55, 8-Ethyl-2-(4-hydroxyphenylamino)-8H-pyrido[2,3-d]pyrimidin-7-one] | 600 |  |  |  | 
CCn1c(=O)ccc2cnc(Nc3ccc(F)cc3)nc21 [Example 88, 8-Ethyl-2-(4-fluorophenylamino)-8H-pyrido[2,3-d]pyrimidin-7-one] | 1300 | 2070 | 280 | 440 | 
CCn1c(=O)ccc2cnc(NC3CCCCC3)nc21 [Example 48, 2-Cyclohexylamino-8-ethyl-8H-pyrido[2,3-d]pyrimidin-7-one] | 3300 | 2610 | 592 | 230 | 
O=c1ccc2cnc(Nc3ccccc3)nc2n1C1CCCCCC1 [Example 155, 8-Cycloheptyl-2-phenylamino-8H-pyrido[2,3-d]pyrimidin-7-one] | 182 | 65 | 24 | 9 | 
CC(C)Nc1ncc2ccc(=O)n(C)c2n1 [Example 67, 2-Isopropylamino-8-methyl-8H-pyrido[2,3-d]pyrimidin-7-one] | 25000 |  |  |  | 
Cn1c(=O)ccc2cnc(NCCc3ccccn3)nc21 [Example 66, 8-Methyl-2-(2-pyridin-2-yl-ethylamino)-8H-pyrido[2,3-d]pyrimidin-7-one] | 45000 |  |  |  | 
COCCn1c(=O)ccc2cnc(Nc3ccccc3)nc21 [Example 86, 8-(2-Methoxyethyl)-2-phenylamino-8H-pyrido[2,3-d]pyrimidin-7-one] | 2400 |  |  |  | 
CCn1c(=O)ccc2cnc(Nc3cccc(OC(F)(F)C(F)F)c3)nc21 [Example 54, 8-Ethyl-2-[3-(1,1,2,2-tetrafluoroethoxy)-phenylamino]-8H-pyrido[2,3-d]pyrimidin-7-one] | 7830 | 91 | 1200 | 238 | 
CCn1c(=O)ccc2cnc(NC(C)C)nc21 [Example 47, 8-Ethyl-2-isopropylamino-8H-pyrido[2,3-d]pyrimidin-7-one] | 3700 | 3550 |  |  | 
CCN1C(=O)CCc2cnc(Nc3ccccc3)nc21 [Example 69, 8-Ethyl-2-phenylamino-5,8-dihydro-6H-pyrido[2,3-d]pyrimidin-7-one] | 4300 |  |  |  | 

Compound | IC50 [1, 5] [nM] | IC50 [2] [nM] | IC50 [3] [nM] | IC50 [4] [nM] | other results
CCn1c(=O)ccc2cnc(Nc3ccc(OCc4ccccc4)cc3)nc21 [Example 56, 2-Benzyloxyphenylamino-8-ethyl-8H-pyrido[2,3-d]pyrimidin-7-one] | 25000 |  |  |  | 
CCNc1nc(Nc2ccccc2)ncc1CCC(=O)OCC [Example 68, 3-(4-Ethylamino-2-phenylamino-pyrimidin-5-yl)propionic acid ethyl ester] |  |  |  |  | IC50 ([1]; Table 2, Formula II compounds): 90000 nM; inhibition at 40 µM ([1]; at 40 µM, Table 2): 37%
COCn1c(=O)ccc2cnc(Nc3ccccc3)nc21 [Example 37, 8-Methoxymethyl-2-phenylamino-8H-pyrido[2,3-d]pyrimidin-7-one] | 4200 |  |  |  | 
CCC(C)n1c(=O)ccc2cnc(Nc3ccccc3)nc21 (stereo not drawn) [Example 85, 8-sec-Butyl-2-phenylamino-8H-pyrido[2,3-d]pyrimidin-7-one] | 200 |  |  |  | 
COc1ccc(Cn2c(=O)ccc3cnc(Nc4ccccc4)nc32)cc1 [Example 58, 8-(4-Methoxybenzyl)-2-phenylamino-8H-pyrido[2,3-d]pyrimidin-7-one] | 10000 |  |  |  | 
CCNc1nc(Nc2ccccc2)ncc1C=CC#N [Example 72, 3-(4-Ethylamino-2-phenylamino-pyrimidin-5-yl)acrylonitrile] |  |  |  |  | inhibition at 40 µM [1]: 18%
CCCCNc1ncc2ccc(=O)n(C)c2n1 [Example 64, 2-Butylamino-8-methyl-8H-pyrido[2,3-d]pyrimidin-7-one] | 40000 |  |  |  | 
Cn1c(=O)ccc2cnc(NCc3ccccc3)nc21 [Example 63, 2-Benzylamino-8-methyl-8H-pyrido[2,3-d]pyrimidin-7-one] |  | 21600 |  | 38100 | 
CCn1c(=O)ccc2cnc(NCc3ccccc3)nc21 [Example 44, 2-Benzylamino-8-ethyl-8H-pyrido[2,3-d]pyrimidin-7-one] |  | 16700 |  | 6460 | 
CCC(CC)n1c(=O)ccc2cnc(Nc3ccc(N4CCN(C)CC4)cc3)nc21 [Example 77, 8-(1-Ethylpropyl)-2-[4-(4-methylpiperazin-1-yl)-phenylamino]-8H-pyrido[2,3-d]pyrimidin-7-one] | 14 | 141 | 68 | 28 | 
CCn1c(=O)ccc2cnc(Nc3ccc(N(C)C)cc3)nc21 [Example 93, 2-(4-Dimethylamino-phenylamino)-8-ethyl-8H-pyrido[2,3-d]pyrimidin-7-one] | 380 | 780 | 1770 | 280 | 
Cn1c(=O)ccc2cnc(Nc3ccccc3)nc21 [Example 61, 8-Methyl-2-phenylamino-8H-pyrido[2,3-d]pyrimidin-7-one] | 6900 | 1760 | 860 | 490 | 
CC(C)n1c(=O)ccc2cnc(Nc3ccccc3)nc21 [Example 43, 8-Isopropyl-2-phenylamino-8H-pyrido[2,3-d]pyrimidin-7-one] | 150 | 440 | 126 | 31 | 
CCN(CC)c1ccc(Nc2ncc3ccc(=O)n(CC)c3n2)cc1 [Example 78, 2-(4-Diethylamino-phenylamino)-8-ethyl-8H-pyrido[2,3-d]pyrimidin-7-one] | 1300 | 740 | 2940 | 2240 | 
CCn1c(=O)ccc2cnc(Nc3cccc(F)c3)nc21 [Example 89, 8-Ethyl-2-(3-fluorophenylamino)-8H-pyrido[2,3-d]pyrimidin-7-one] | 1400 |  |  |  | 
CCNc1nc(Nc2ccccc2)ncc1C(C)=CC(=O)OCC [Example 73, 3-(4-Ethylamino-2-phenylamino-pyrimidin-5-yl)-but-2-enoic acid ethyl ester] |  |  |  |  | inhibition at 40 µM ([1]; at 40 µM, Table 2): 58%
CCC(CC)n1c(=O)ccc2cnc(Nc3ccccc3)nc21 [Example 74, 8-(1-Ethylpropyl)-2-phenylamino-8H-pyrido[2,3-d]pyrimidin-7-one] | 141 |  |  |  | 
CCNc1ncc2ccc(=O)n(CC)c2n1 [Example 45, 8-Ethyl-2-ethylamino-8H-pyrido[2,3-d]pyrimidin-7-one] | 12000 | 9230 | 3930 | 2460 | 
CCn1c(=O)ccc2cnc(Nc3ccc(OC)cc3)nc21 [Example 51, 8-Ethyl-2-(4-methoxyphenylamino)-8H-pyrido[2,3-d]pyrimidin-7-one] | 600 | 665 | 422 | 134 | 
CCn1c(=O)ccc2cnc(Nc3ccc(N4CCN(C)CC4)cc3)nc21 [Example 53, 8-Ethyl-2-[4-(4-methylpiperazin-1-yl)-phenylamino]-8H-pyrido[2,3-d]pyrimidin-7-one] | 85 | 1880 | 1190 | 339 | 
